From PubChem BioAssay (NCI)
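96-well plates; 48 h exposure; 5 concentrations. Endpoints by linear interpolation between flanking doses. Not reached: highest tested concentration assigned. At the TGI there is no net growth.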

Assays:
Experiment in all cases: NCI tumour cell line growth inhibition, 48 h
786-0 renal = test system: 786-0 renal
A498 renal = test system: A498 renal
A549 NSCLC = test system: A549 NSCLC
ACHN renal = test system: ACHN renal
BT-549 breast = test system: BT-549 breast
CAKI-1 renal = test system: CAKI-1 renal
CCRF-CEM leukemia = test system: CCRF-CEM leukemia
COLO 205 colon = test system: COLO 205 colon
DU-145 prostate = test system: DU-145 prostate
EKVX NSCLC = test system: EKVX NSCLC
HCC-2998 colon = test system: HCC-2998 colon
HCT-116 colon = test system: HCT-116 colon
HCT-15 colon = test system: HCT-15 colon
HL-60(TB) leukemia = test system: HL-60(TB) leukemia
HOP-62 NSCLC = test system: HOP-62 NSCLC
HS 578T breast = test system: HS 578T breast
HT29 colon = test system: HT29 colon
IGROV1 ovarian = test system: IGROV1 ovarian
K-562 leukemia = test system: K-562 leukemia
KM12 colon = test system: KM12 colon
LOX IMVI melanoma = test system: LOX IMVI melanoma
M14 melanoma = test system: M14 melanoma
MALME-3M melanoma = test system: MALME-3M melanoma
MCF7 breast = test system: MCF7 breast
MDA-MB-231 breast = test system: MDA-MB-231 breast
MDA-MB-435 = test system: MDA-MB-435
MDA-N = test system: MDA-N
MOLT-4 leukemia = test system: MOLT-4 leukemia
NCI-H226 lung = test system: NCI-H226 lung
NCI-H23 lung = test system: NCI-H23 lung
NCI-H460 lung = test system: NCI-H460 lung
NCI-H522 lung = test system: NCI-H522 lung
OVCAR-3 ovarian = test system: OVCAR-3 ovarian
OVCAR-4 ovarian = test system: OVCAR-4 ovarian
OVCAR-5 ovarian = test system: OVCAR-5 ovarian
OVCAR-8 ovarian = test system: OVCAR-8 ovarian
PC-3 prostate = test system: PC-3 prostate
RPMI-8226 leukemia = test system: RPMI-8226 leukemia
RXF 393 renal = test system: RXF 393 renal
SF-268 CNS = test system: SF-268 CNS
SF-295 CNS = test system: SF-295 CNS
SF-539 CNS = test system: SF-539 CNS
SK-MEL-2 melanoma = test system: SK-MEL-2 melanoma
SK-MEL-28 melanoma = test system: SK-MEL-28 melanoma
SK-MEL-5 melanoma = test system: SK-MEL-5 melanoma
SK-OV-3 ovarian = test system: SK-OV-3 ovarian
SN12C renal = test system: SN12C renal
SNB-19 CNS = test system: SNB-19 CNS
SNB-75 CNS = test system: SNB-75 CNS
SR leukemia = test system: SR leukemia
SW-620 colon = test system: SW-620 colon
T-47D breast = test system: T-47D breast
TK-10 renal = test system: TK-10 renal
U251 CNS = test system: U251 CNS
UACC-257 melanoma = test system: UACC-257 melanoma
UACC-62 melanoma = test system: UACC-62 melanoma
UO-31 renal = test system: UO-31 renal
HOP-92 NSCLC = test system: HOP-92 NSCLC
NCI/ADR-RES ovarian = test system: NCI/ADR-RES ovarian

Measured: TGI

CN(C)CCNC(=O)c1cc([N+](=O)[O-])cn1C
not listed: HOP-92 NSCLC | NCI/ADR-RES ovarian
> 100 µM: all other assays above

O=C1OC(c2ccccc2)=N/C1=C\c1ccc(F)cc1
not listed: MALME-3M melanoma | MCF7 breast | SF-295 CNS | SF-539 CNS
> 100 µM: all other assays above
